Test results: publication PMC2731242, “Oleic Acid Biosynthesis in Plasmodium falciparum: Characterization of the Stearoyl-CoA Desaturase and Investigation as a Potential Therapeutic Target” (PLoS ONE, 2009)

Molecular target: T1, stearoyl-CoA Δ9-desaturase (PfSCD, PFE0555w) (Plasmodium falciparum, UniProt Q8I0W9)
T1 construct: gene PF3D7_0511200; native enzyme in crude schizont lysate (500 µg total protein)
Assay: cell-free desaturase assay in schizont lysates, […]-stearoyl-CoA to oleic acid, silver nitrate TLC
Assay type: biochemical

T1 sequence (Q8I0W9 entry or part of it, stated change not applied): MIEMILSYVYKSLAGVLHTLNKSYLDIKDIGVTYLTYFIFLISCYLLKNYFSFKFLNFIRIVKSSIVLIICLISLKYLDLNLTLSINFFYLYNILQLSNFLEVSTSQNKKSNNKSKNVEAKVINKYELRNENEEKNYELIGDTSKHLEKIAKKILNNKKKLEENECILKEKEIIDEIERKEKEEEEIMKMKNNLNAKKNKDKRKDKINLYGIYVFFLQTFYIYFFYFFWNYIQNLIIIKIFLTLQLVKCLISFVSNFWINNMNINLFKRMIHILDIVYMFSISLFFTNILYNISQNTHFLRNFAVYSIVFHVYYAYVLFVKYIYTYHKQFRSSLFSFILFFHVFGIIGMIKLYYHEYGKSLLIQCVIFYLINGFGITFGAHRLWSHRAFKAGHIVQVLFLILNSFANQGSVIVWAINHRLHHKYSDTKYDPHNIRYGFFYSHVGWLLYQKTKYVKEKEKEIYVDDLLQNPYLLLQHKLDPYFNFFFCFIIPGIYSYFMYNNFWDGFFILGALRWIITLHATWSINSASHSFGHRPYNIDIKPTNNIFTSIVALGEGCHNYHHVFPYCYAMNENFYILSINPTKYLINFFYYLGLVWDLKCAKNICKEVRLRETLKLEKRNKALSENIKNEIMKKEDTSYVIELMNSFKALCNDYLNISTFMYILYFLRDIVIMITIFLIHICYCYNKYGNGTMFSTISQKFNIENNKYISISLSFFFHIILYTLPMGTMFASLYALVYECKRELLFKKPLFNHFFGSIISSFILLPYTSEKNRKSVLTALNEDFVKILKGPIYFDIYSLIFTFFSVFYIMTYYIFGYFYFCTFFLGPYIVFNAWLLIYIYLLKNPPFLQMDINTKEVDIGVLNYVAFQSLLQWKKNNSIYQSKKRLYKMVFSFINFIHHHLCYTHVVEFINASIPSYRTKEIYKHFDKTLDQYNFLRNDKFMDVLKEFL

SMILES: CCCCCCCCC1=C(CCCCCCCC(=O)OC)C1 [MeSter, methyl sterculate]
- IC50: 105 µM
